ChEMBL document CHEMBL1151120, “Plant antimutagenic agents, 3. Coumarins” (J Nat Prod, 1988)

Columns and labels:
Format in all cases: functional, Salmonella enterica subsp. enterica serovar Typhimurium, T98
[1] = tested on: Salmonella typhimurium; assay: Antimutagenic activity in Salmonella Typhimurium […] assessed as inhibition of 2-aminoanthracene-induced mutation at 300 ug/plate after 72 hrs in presence of Ames S-9 fraction
[2] = tested on: Salmonella typhimurium; assay: Antimutagenic activity in Salmonella Typhimurium […] assessed as inhibition of 2-nitroflorene-induced mutation at 600 ug/plate after 72 hrs
[3] = tested on: Salmonella typhimurium; assay: Antimutagenic activity in Salmonella Typhimurium […] assessed as inhibition of 2-aminoanthracene-induced mutation at 600 ug/plate after 72 hrs in presence of Ames S-9 fraction
[4] = tested on: Salmonella typhimurium; assay: Antimutagenic activity in Salmonella Typhimurium […] assessed as inhibition of 2-nitroflorene-induced mutation at 150 ug/plate after 72 hrs
[5] = tested on: Salmonella typhimurium; assay: Antimutagenic activity in Salmonella Typhimurium […] assessed as inhibition of acetylaminofluorene-induced mutation at 150 ug/plate after 72 hrs in presence of Ames S-9 fraction
[6] = tested on: Salmonella typhimurium; assay: Antimutagenic activity in Salmonella Typhimurium […] assessed as inhibition of 2-nitroflorene-induced mutation at 300 ug/plate after 72 hrs
[7] = tested on: Salmonella typhimurium; assay: Antimutagenic activity in Salmonella Typhimurium […] assessed as inhibition of benzo[a]pyrene-induced mutation at 150 ug/plate after 72 hrs in presence of Ames S-9 fraction
[8] = tested on: Salmonella typhimurium; assay: Antimutagenic activity in Salmonella Typhimurium […] assessed as inhibition of acetylaminofluorene-induced mutation at 600 ug/plate after 72 hrs in presence of Ames S-9 fraction
[9] = tested on: Salmonella typhimurium; assay: Antimutagenic activity in Salmonella Typhimurium […] assessed as inhibition of benzo[a]pyrene-induced mutation at 300 ug/plate after 72 hrs in presence of Ames S-9 fraction
[10] = tested on: Salmonella typhimurium; assay: Antimutagenic activity in Salmonella Typhimurium […] assessed as inhibition of acetylaminofluorene-induced mutation at 300 ug/plate after 72 hrs in presence of Ames S-9 fraction
[11] = tested on: Salmonella typhimurium; assay: Antimutagenic activity in Salmonella Typhimurium […] assessed as inhibition of benzo[a]pyrene-induced mutation at 600 ug/plate after 72 hrs in presence of Ames S-9 fraction
[12] = tested on: Salmonella typhimurium; assay: Antimutagenic activity in Salmonella Typhimurium […] assessed as inhibition of 2-aminoanthracene-induced mutation at 150 ug/plate after 72 hrs in presence of Ames S-9 fraction

SMILES | inhibition (INH) [1] [%] | inhibition (INH) [2] [%] | inhibition (INH) [3] [%] | inhibition (INH) [4] [%] | inhibition (INH) [5] [%] | inhibition (INH) [6] [%] | inhibition (INH) [7] [%] | inhibition (INH) [8] [%] | inhibition (INH) [9] [%] | inhibition (INH) [10] [%] | inhibition (INH) [11] [%] | inhibition (INH) [12] [%]
COc1c2ccoc2cc2oc(=O)ccc12 [BERGAPTEN] | 0 | 40 | 23 | 27 | 0 | 41 | 61 | 0 | 67 | 0 | 75 | 0
O=c1ccc2ccccc2o1 [COUMARIN] | 0 | 73 | 22 | 24 | 5 | 17 | 10 | 36 | 16 | 28 | 53 | 0
COc1c2occc2cc2ccc(=O)oc12 [METHOXSALEN] | 0 | 25 | 44 | 5 | 0 | 39 | 58 | 39 | 76 | 21 | 86 | 0
COc1ccc2ccc(=O)oc2c1CC=C(C)C [OSTHOLE] | 0 | 80 | 68 | 29 | 51 | 55 | 13 | 74 | 49 | 56 | 54 | 0
CC(C)=CCOc1c2occc2cc2ccc(=O)oc12 [PENTOSALEN] | 0 | 58 | 81 | 22 | 35 | 43 | 86 | – | 87 | 56 | 90 | 0
O=c1ccc2cc3ccoc3cc2o1 [PSORALEN] | – | – | 60 | – | – | – | – | – | – | – | – | –
O=c1ccc2ccc(O)cc2o1 [UMBELLIFERONE] | – | – | 14 | – | – | – | – | – | – | – | – | –
